The values that follow come from ChEMBL document CHEMBL1155870, “Design and synthesis of novel oxazole containing 1,3-dioxane-2-carboxylic acid derivatives as PPAR alpha/gamma dual agonists” (Bioorg Med Chem, 2008).

Active and inactive are the calls of the source. The calls are words filed in the database; no cut-off is given here.

Series [1] has as its target T1, Peroxisome proliferator-activated receptor alpha (Homo sapiens, UniProt Q07869).
T1 sequence (Q07869 whole entry): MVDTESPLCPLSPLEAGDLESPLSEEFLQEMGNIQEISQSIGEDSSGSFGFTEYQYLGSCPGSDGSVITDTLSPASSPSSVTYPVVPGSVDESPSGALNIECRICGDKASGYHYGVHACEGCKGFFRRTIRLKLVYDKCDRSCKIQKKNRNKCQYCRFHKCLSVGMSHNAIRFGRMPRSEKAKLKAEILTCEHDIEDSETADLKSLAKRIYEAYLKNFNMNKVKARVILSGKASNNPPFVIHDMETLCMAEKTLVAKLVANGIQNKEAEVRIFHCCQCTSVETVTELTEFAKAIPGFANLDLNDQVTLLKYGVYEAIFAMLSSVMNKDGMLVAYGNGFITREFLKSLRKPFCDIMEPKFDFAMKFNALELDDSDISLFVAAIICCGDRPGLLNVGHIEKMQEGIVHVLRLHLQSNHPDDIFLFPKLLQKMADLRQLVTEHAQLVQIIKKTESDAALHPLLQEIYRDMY
In words: Agonist activity at PPARalpha expressed in human HepG2 cells assessed as induction of receptor transactivation by reporter gene assay relative to control. The class given is functional, cell-based. Background: A reporter such as luciferase makes a cellular process visible.

Series [2] has as its target T2, Peroxisome proliferator-activated receptor alpha (Homo sapiens) (UniProt Q07869).
T2 sequence (whole entry): T1 sequence (Q07869 whole entry)
In words: Agonist activity at PPARalpha expressed in human HepG2 cells at 10 uM assessed as induction of receptor transactivation by reporter gene assay relative to control. The class given is functional, cell-based.

In series [3] the target is T3, Peroxisome proliferator-activated receptor gamma (Homo sapiens, UniProt P37231).
T3 sequence (P37231 whole entry): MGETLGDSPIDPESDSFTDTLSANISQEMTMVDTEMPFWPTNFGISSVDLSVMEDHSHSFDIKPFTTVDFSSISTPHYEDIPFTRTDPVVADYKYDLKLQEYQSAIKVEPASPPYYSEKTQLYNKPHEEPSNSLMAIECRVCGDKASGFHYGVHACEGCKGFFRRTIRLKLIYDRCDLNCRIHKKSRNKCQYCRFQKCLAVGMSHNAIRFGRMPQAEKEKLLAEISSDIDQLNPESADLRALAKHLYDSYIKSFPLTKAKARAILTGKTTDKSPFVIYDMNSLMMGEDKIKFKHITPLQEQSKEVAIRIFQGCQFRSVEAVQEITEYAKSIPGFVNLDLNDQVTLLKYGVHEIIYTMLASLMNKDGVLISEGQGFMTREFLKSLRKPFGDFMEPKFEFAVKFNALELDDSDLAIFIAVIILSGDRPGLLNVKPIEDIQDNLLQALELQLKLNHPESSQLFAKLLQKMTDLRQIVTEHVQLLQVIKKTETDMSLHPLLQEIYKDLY
Description: Agonist activity at PPARgamma expressed in human HepG2 cells assessed as induction of receptor transactivation by reporter gene assay relative to control

Series [4] concerns Rattus norvegicus. In words: Hypoglycemic activity in Zucker diabetic fa/fa rat assessed as improvement in glucose AUC at 3 mg/kg/day, po for 14 days. The class given is functional.
Series [5] has as its system Mus musculus. Put plainly: Hypolipidemic activity in db/db mouse assessed as reduction in triglyceride level at 3 mg/kg/day, po for 6 days. The class given is functional. Also noted: scale not given: the % may be the effect or the level left.
Series [6] deals with Rattus norvegicus. In words: Hypolipidemic activity in Zucker diabetic fa/fa rat assessed as reduction in total cholesterol level at 3 mg/kg/day, po for 14 days. In kind it is functional. Set-up: scale not given: the % may be the effect or the level left.
The nature of series [7]: Tmax in Wistar rat at 30 mg/kg, po. The class given is ADME, organism-based. Set-up: dose 30 mg/kg, route oral. To be noted: in vivo.
Series [8] can be described thus: AUC (0 to infinity) in Wistar rat at 30 mg/kg, po. In kind it is ADME, organism-based. Also noted: time infinity, dose 30 mg/kg, route oral. To be noted: plasma.
Series [9] is described as follows: Cmax in Wistar rat at 30 mg/kg, po. In kind it is ADME, organism-based. Set-up: dose 30 mg/kg, route oral. To be noted: in vivo.
Series [10] relates to Rattus norvegicus. In words: Hypolipidemic activity in Zucker diabetic fa/fa rat assessed as reduction in triglyceride level at 3 mg/kg/day, po for 14 days. Set-up: scale not given: the % may be the effect or the level left. In kind it is functional.
The subject of series [11] is Rattus norvegicus. In words: Insulin sensitizing activity in Zucker diabetic fa/fa rat assessed as reduction in fasted insulin level at 3 mg/kg/day, po for 14 days. In kind it is functional. Also noted: scale not given: the % may be the effect or the level left.
Series [12] is described as follows: Half life in Wistar rat at 30 mg/kg, po. In kind it is ADME, organism-based. Also noted: dose 30 mg/kg, route oral. As to conditions: in vivo.
Series [13] concerns Mus musculus. Put plainly: Hypoglycemic activity in db/db mouse assessed as reduction in plasma glucose level at 3 mg/kg/day, po for 6 days. In kind it is functional. Set-up: scale not given: the % may be the effect or the level left.
The test system of series [14] is Mus musculus. In words: Hypoglycemic activity in db/db mouse assessed as reduction in plasma glucose level at 30 mg/kg/day, po for 6 days. In kind it is functional, organism-based. Also noted: route oral; scale not given: the % may be the effect or the level left.

One may read the EC50 as the concentration that produces a half-maximal response. As for `Cc1ccc(-c2nc(COc3ccc(C[C@H]4CO[C@@](C)(C(=O)O)OC4)cc3)c(C)o2)s1`, the EC50 in series [1] was determined as 0.6 nM; in [3], 19.8 nM. In addition, the fold change (FC) in series [2] was found to be 5.6.
The term Tmax denotes the time from dosing to the highest level. A word on the AUC(0-inf): it is the area under the concentration-time curve extrapolated to infinity. For orientation: Cmax means the highest concentration seen after dosing. The half-life is the time in which the quantity being followed falls by half. Turning to `Cc1ccc(-c2nc(COc3ccc(C[C@H]4CO[C@@](C)(C(=O)O)OC4)cc3)c(C)o2)cc1`, the Activity was 51% in the series on Rattus norvegicus [4]; 50% in the series on Mus musculus [5]; 30% with Rattus norvegicus [6]; 71% in the series on Rattus norvegicus [10]; 77% with Rattus norvegicus [11]; 57% in the series on Mus musculus [13]. Also, the Tmax in series [7] is 1.7 h. Also, the concentration for a half-maximal effect (EC50) in series [1] amounted to 0.072 nM; in [3] it was 15 nM. For the same molecule, in series [8], the AUC(0-inf) is 351 µg·h/mL. In series [2], the fold change (FC) was found to be 8.2. Besides, in [9], the Cmax stood at 54 µg/mL. This molecule also had a half-life in series [12] of 2.7 h.
Take `Cc1ccc(-c2nc(CCOc3ccc(C[C@H]4CO[C@@](C)(C(=O)O)OC4)cc3)c(C)o2)cc1`: the EC50 stood at 0.089 nM in series [1] and 1380 nM in [3]. In addition, in series [2], the fold change (FC) is 6.3.
Take `Cc1oc(-c2ccccc2)nc1COc1ccc([C@H]2CO[C@@](C)(C(=O)O)OC2)cc1`: the fold change (FC) in [2] is 3.
As for `CN(CCOc1ccc(CC2SC(=O)NC2=O)cc1)c1ccccn1` (stereo not given) [ROSIGLITAZONE], in the series with Mus musculus [14], the Activity is 54%.
On to `Cc1cccc(Nc2cc(Cl)nc(SCC(=O)O)n2)c1C`, for which the fold change (FC) in [2] came out at 4.4.
With `Cc1oc(C(C)(C)C)nc1CCOc1ccc(C[C@H]2CO[C@@](C)(C(=O)O)OC2)cc1`, the EC50 came to 4.2 nM in series [1] and 5010 nM in series [3]. Besides, in series [2], the fold change (FC) turned out to be 5.8.
On the same counts, the results for `Cc1oc(-c2ccccc2)nc1COc1ccc(C[C@H]2CO[C@@](C)(C(=O)O)OC2)cc1` are 1.09 nM, 96 nM and 6.5.
On to `Cc1oc(-c2ccccc2)nc1CCOc1ccc(C[C@H]2CO[C@@](C)(C(=O)O)OC2)cc1`, for which the 50% effective concentration (EC50) in series [1] came out at 0.272 nM; in series [3] it was 4100 nM. Also, in series [2], the fold change (FC) stood at 5.3.
Turning to `Cc1ccc(-c2nc(CCCOc3ccc(C[C@H]4CO[C@@](C)(C(=O)O)OC4)cc3)c(C)o2)cc1`, the fold change (FC) in [2] is 1.8.
`Cc1ccc(-c2nc(CCOc3ccc(C[C@H]4CO[C@@](C)(C(=O)O)OC4)cc3)c(C)o2)s1`: the 50% effective concentration (EC50) turned out to be 0.03 nM in series [1] and 239 nM in series [3]. The fold change (FC) in series [2] was determined as 6.8.
Take `Cc1oc(C(C)(C)C)nc1COc1ccc(C[C@H]2CO[C@@](C)(C(=O)O)OC2)cc1`: the fold change (FC) in series [2] is 2.3.
Turning to `CCO[C@@H](Cc1ccc(OCCc2ccc(OS(C)(=O)=O)cc2)cc1)C(=O)O` [TESAGLITAZAR], the Activity with Rattus norvegicus [4] was found to be 51%; in the series with Mus musculus [5], 60%; in the series with Rattus norvegicus [6], 16%; in the series on Rattus norvegicus [10], 67%; with Rattus norvegicus [11], 91%; with Mus musculus [13], 54%.
`Cc1ccc(-c2nc(CCOc3ccc([C@H]4CO[C@@](C)(C(=O)O)OC4)cc3)c(C)o2)cc1`: the outcome in [2] was inactive.
Regarding `Cc1ccc(-c2nc(COc3ccc([C@H]4CO[C@@](C)(C(=O)O)OC4)cc3)c(C)o2)cc1`, in series [2], the fold change (FC) is 2.7.
Same read-out and setting: to `Cc1oc(-c2ccccc2)nc1CCOc1ccc([C@H]2CO[C@@](C)(C(=O)O)OC2)cc1` belongs 3.
